{
  "source": "patent US11491228B2",
  "about": "“Hydrogels and uses thereof” (Massachusetts Institute of Technology, priority 2018, dated 2022)",
  "experiment": "Release of taxanes from PEG alkynoate-TREN (beta-aminoacrylate) gel into PBS, HPLC",
  "assay_type": "physicochemical",
  "settings": "37° C.",
  "experimental": "Samples were stored at +4° C. […] The wavelength of detection was 227 nm. Phases were A: water, B: MeCN.",
  "data": [
    {"smiles": "CC(=O)O[C@@]12CO[C@@H]1C[C@H](O)[C@@]1(C)C(=O)[C@H](O)C3=C(C)[C@@H](OC(=O)[C@H](O)[C@@H](NC(=O)OC(C)(C)C)c4ccccc4)C[C@@](O)([C@@H](OC(=O)c4ccccc4)[C@H]21)C3(C)C", "note": "[Docetaxel, docetaxel]", "values": [
      {"measurement": "Concentrations of taxane following release from PEG alkynoate-TREN gels", "setting": "1 h, average", "result": 39.29, "unit": "ng/mL"},
      {"measurement": "Concentrations of taxane following release from PEG alkynoate-TREN gels", "setting": "1 h, replicate A", "result": -152.3, "unit": "ng/mL"},
      {"measurement": "Concentrations of taxane following release from PEG alkynoate-TREN gels", "setting": "1 h, replicate B", "result": 422.4, "unit": "ng/mL"},
      {"measurement": "Concentrations of taxane following release from PEG alkynoate-TREN gels", "setting": "1 h, replicate C", "result": -152.3, "unit": "ng/mL"},
      {"measurement": "Concentrations of taxane following release from PEG alkynoate-TREN gels", "setting": "2 h, average", "result": 201.4, "unit": "ng/mL"},
      {"measurement": "Concentrations of taxane following release from PEG alkynoate-TREN gels", "setting": "2 h, replicate A", "result": -152.3, "unit": "ng/mL"},
      {"measurement": "Concentrations of taxane following release from PEG alkynoate-TREN gels", "setting": "2 h, replicate B", "result": 555, "unit": "ng/mL"},
      {"measurement": "Concentrations of taxane following release from PEG alkynoate-TREN gels", "setting": "2 h, replicate C", "result": 201.4, "unit": "ng/mL"},
      {"measurement": "Concentrations of taxane following release from PEG alkynoate-TREN gels", "setting": "5 h, average", "result": 363.5, "unit": "ng/mL"},
      {"measurement": "Concentrations of taxane following release from PEG alkynoate-TREN gels", "setting": "5 h, replicate A", "result": 1041, "unit": "ng/mL"},
      {"measurement": "Concentrations of taxane following release from PEG alkynoate-TREN gels", "setting": "5 h, replicate B", "result": 201.4, "unit": "ng/mL"},
      {"measurement": "Concentrations of taxane following release from PEG alkynoate-TREN gels", "setting": "5 h, replicate C", "result": -152.3, "unit": "ng/mL"},
      {"measurement": "Concentrations of taxane following release from PEG alkynoate-TREN gels", "setting": "20 h, average", "result": 267.7, "unit": "ng/mL"},
      {"measurement": "Concentrations of taxane following release from PEG alkynoate-TREN gels", "setting": "20 h, replicate A", "result": 643.4, "unit": "ng/mL"},
      {"measurement": "Concentrations of taxane following release from PEG alkynoate-TREN gels", "setting": "20 h, replicate B", "result": 311.9, "unit": "ng/mL"},
      {"measurement": "Concentrations of taxane following release from PEG alkynoate-TREN gels", "setting": "20 h, replicate C", "result": -152.3, "unit": "ng/mL"},
      {"measurement": "Concentrations of taxane following release from PEG alkynoate-TREN gels", "setting": "48 h, average", "result": 1127.9, "unit": "ng/mL"},
      {"measurement": "Concentrations of taxane following release from PEG alkynoate-TREN gels", "setting": "48 h, replicate A", "result": 984.7, "unit": "ng/mL"},
      {"measurement": "Concentrations of taxane following release from PEG alkynoate-TREN gels", "setting": "48 h, replicate B", "result": 1003, "unit": "ng/mL"},
      {"measurement": "Concentrations of taxane following release from PEG alkynoate-TREN gels", "setting": "48 h, replicate C", "result": 1396, "unit": "ng/mL"},
      {"measurement": "% released from PEG alkynoate-TREN gels", "setting": "Table 3, 1 h, average", "result": 0.05239, "unit": "%"},
      {"measurement": "% released from PEG alkynoate-TREN gels", "setting": "Table 3, 1 h, replicate A", "result": "−0.203", "unit": "%"},
      {"measurement": "% released from PEG alkynoate-TREN gels", "setting": "Table 3, 1 h, replicate B", "result": 0.5632, "unit": "%"},
      {"measurement": "% released from PEG alkynoate-TREN gels", "setting": "Table 3, 1 h, replicate C", "result": "−0.203", "unit": "%"},
      {"measurement": "% released from PEG alkynoate-TREN gels", "setting": "Table 3, 2 h, average", "result": 0.2685, "unit": "%"},
      {"measurement": "% released from PEG alkynoate-TREN gels", "setting": "Table 3, 2 h, replicate A", "result": "−0.203", "unit": "%"},
      {"measurement": "% released from PEG alkynoate-TREN gels", "setting": "Table 3, 2 h, replicate B", "result": 0.74, "unit": "%"},
      {"measurement": "% released from PEG alkynoate-TREN gels", "setting": "Table 3, 2 h, replicate C", "result": 0.2685, "unit": "%"},
      {"measurement": "% released from PEG alkynoate-TREN gels", "setting": "Table 3, 5 h, average", "result": 0.4846, "unit": "%"},
      {"measurement": "% released from PEG alkynoate-TREN gels", "setting": "Table 3, 5 h, replicate A", "result": 1.388, "unit": "%"},
      {"measurement": "% released from PEG alkynoate-TREN gels", "setting": "Table 3, 5 h, replicate B", "result": 0.2685, "unit": "%"},
      {"measurement": "% released from PEG alkynoate-TREN gels", "setting": "Table 3, 5 h, replicate C", "result": "−0.203", "unit": "%"},
      {"measurement": "% released from PEG alkynoate-TREN gels", "setting": "Table 3, 20 h, average", "result": 0.3569, "unit": "%"},
      {"measurement": "% released from PEG alkynoate-TREN gels", "setting": "Table 3, 20 h, replicate A", "result": 0.8579, "unit": "%"},
      {"measurement": "% released from PEG alkynoate-TREN gels", "setting": "Table 3, 20 h, replicate B", "result": 0.4158, "unit": "%"},
      {"measurement": "% released from PEG alkynoate-TREN gels", "setting": "Table 3, 20 h, replicate C", "result": "−0.203", "unit": "%"},
      {"measurement": "% released from PEG alkynoate-TREN gels", "setting": "Table 3, 48 h, average", "result": 1.504, "unit": "%"},
      {"measurement": "% released from PEG alkynoate-TREN gels", "setting": "Table 3, 48 h, replicate A", "result": 1.3129, "unit": "%"},
      {"measurement": "% released from PEG alkynoate-TREN gels", "setting": "Table 3, 48 h, replicate B", "result": 1.337, "unit": "%"},
      {"measurement": "% released from PEG alkynoate-TREN gels", "setting": "Table 3, 48 h, replicate C", "result": 1.862, "unit": "%"},
      {"measurement": "% released from PEG alkynoate-TREN gels", "setting": "Table 4, 1 h, average", "result": 2.074, "unit": "%"},
      {"measurement": "% released from PEG alkynoate-TREN gels", "setting": "Table 4, 1 h, replicate A", "result": 2.465, "unit": "%"},
      {"measurement": "% released from PEG alkynoate-TREN gels", "setting": "Table 4, 1 h, replicate B", "result": 2.016, "unit": "%"},
      {"measurement": "% released from PEG alkynoate-TREN gels", "setting": "Table 4, 1 h, replicate C", "result": 1.741, "unit": "%"},
      {"measurement": "% released from PEG alkynoate-TREN gels", "setting": "Table 4, 6 h, average", "result": 4.82, "unit": "%"},
      {"measurement": "% released from PEG alkynoate-TREN gels", "setting": "Table 4, 6 h, replicate A", "result": 6.195, "unit": "%"},
      {"measurement": "% released from PEG alkynoate-TREN gels", "setting": "Table 4, 6 h, replicate B", "result": 4.946, "unit": "%"},
      {"measurement": "% released from PEG alkynoate-TREN gels", "setting": "Table 4, 6 h, replicate C", "result": 3.318, "unit": "%"},
      {"measurement": "% released from PEG alkynoate-TREN gels", "setting": "Table 4, 24 h, average", "result": 7.196, "unit": "%"},
      {"measurement": "% released from PEG alkynoate-TREN gels", "setting": "Table 4, 24 h, replicate A", "result": 11.23, "unit": "%"},
      {"measurement": "% released from PEG alkynoate-TREN gels", "setting": "Table 4, 24 h, replicate B", "result": 7.325, "unit": "%"},
      {"measurement": "% released from PEG alkynoate-TREN gels", "setting": "Table 4, 24 h, replicate C", "result": 3.032, "unit": "%"},
      {"measurement": "% released from PEG alkynoate-TREN gels", "setting": "Table 4, 96 h, average", "result": 12.3, "unit": "%"},
      {"measurement": "% released from PEG alkynoate-TREN gels", "setting": "Table 4, 96 h, replicate A", "result": 8.246, "unit": "%"},
      {"measurement": "% released from PEG alkynoate-TREN gels", "setting": "Table 4, 96 h, replicate B", "result": 9.349, "unit": "%"},
      {"measurement": "% released from PEG alkynoate-TREN gels", "setting": "Table 4, 96 h, replicate C", "result": 19.32, "unit": "%"}
    ]}
  ]
}
